Test systems include CAKI-1; CCRF-CEM; DMS-114; DU-145; HCT-15; HOP-62; HOP-92; LOX IMVI; LXFL 529; MDA-MB-231; Malme-3M; NCI-H522; NCI/ADR-RES; OVCAR-3; SF-539; SK-OV-3; SNB-19; SNB-75; SW-620; U-251.
Experiment in all cases: NCI tumour cell line growth inhibition, 48 h

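96-well plates; 48 h exposure; 5 concentrations. Endpoints by linear interpolation between flanking doses. Not reached: highest tested concentration assigned. Here, GI50 denotes the concentration required for 50% inhibition of growth.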 Activity calls are given as the source filed them. Cut-off read from the data, not from the text of the source: active = GI50 up to about 1.1 µM and inactive = higher.

Consider `CC1=NN(C(=O)c2ccccc2O)C(=O)/C1=C/c1ccccc1O`, for which the GI50 is 1.53 µM (inactive) with CAKI-1; 0.164 µM (active) in the assay on CCRF-CEM; 0.0853 µM (active) in the assay with DMS-114; 0.132 µM (active) in the assay with DU-145; 0.292 µM in the assay on HCT-15; 0.236 µM (active) in the assay on HOP-62. The GI50 was 1.27 µM (inactive) with HOP-92; 0.568 µM (active) in the assay with LOX IMVI; 0.0573 µM (active) with LXFL 529; 0.381 µM (active) in the assay on MDA-MB-231; 0.766 µM (active) in the assay with Malme-3M; 0.497 µM (active) with NCI-H522. Moreover, the GI50 in the assay with NCI/ADR-RES is 0.558 µM (active); with OVCAR-3 it was 0.215 µM (active); with SF-539, 0.132 µM (active); in the assay on SK-OV-3, 0.0815 µM (active); in the assay with SNB-19, 0.124 µM (active); with SNB-75, 0.0968 µM (active). Moreover, the GI50 was 1.54 µM (inactive) in the assay on SW-620 and 0.114 µM (active) in the assay with U-251.
With `CNC(=O)OCc1nccc2c(C)c3[nH]c4ccc(OC)cc4c3cc12`, the GI50 with CAKI-1 was 19.1 µM (inactive); with CCRF-CEM, 1.51 µM (inactive); in the assay with DMS-114 it was 2.92 µM (inactive); in the assay with HCT-15, 3.03 µM; with HOP-62, 3.69 µM (inactive); in the assay on HOP-92, 10.6 µM (inactive). Further, the GI50 in the assay with LOX IMVI is 3.04 µM (inactive); in the assay with LXFL 529, 5.74 µM (inactive); in the assay with Malme-3M it was 7.98 µM (inactive); in the assay with NCI-H522, 5.09 µM (inactive); in the assay with OVCAR-3 it was 21.9 µM (inactive); with SF-539, 3.17 µM (inactive). Moreover, the GI50 was 10.7 µM (inactive) in the assay on SK-OV-3; 3.78 µM (inactive) with SNB-19; 7.82 µM (inactive) in the assay on SNB-75; 3.03 µM (inactive) in the assay on SW-620; 5.12 µM (inactive) in the assay with U-251.
For `CCOc1ccc(NC2=CC(=O)C(=O)c3ccccc32)cc1`, the GI50 was 8.05 µM (inactive) in the assay with CAKI-1; 9.48 µM (inactive) in the assay with CCRF-CEM; 1.88 µM (inactive) with DMS-114; 2.38 µM (inactive) in the assay with DU-145; 2.34 µM in the assay with HCT-15; 3.88 µM (inactive) with HOP-62. In addition, the GI50 is 9.48 µM (inactive) in the assay on HOP-92; 1.3 µM (inactive) in the assay on LOX IMVI; 3.47 µM (inactive) with LXFL 529; 12.1 µM (inactive) in the assay with MDA-MB-231; 2.08 µM (inactive) with Malme-3M; 1.81 µM (inactive) with NCI-H522. Also, the GI50 was 2.83 µM (inactive) in the assay on NCI/ADR-RES; 2.86 µM (inactive) in the assay on OVCAR-3; 1.97 µM (inactive) in the assay with SF-539; 11.3 µM (inactive) with SK-OV-3; 2.94 µM (inactive) in the assay with SNB-19; 2.35 µM (inactive) with SNB-75. In addition, the GI50 in the assay on SW-620 is 1.82 µM (inactive); in the assay with U-251, 3.85 µM (inactive).
Take `NC1=NC(=O)/C(=C/c2ccccc2[N+](=O)[O-])C(N)=N1`: the GI50 in the assay on CAKI-1 is > 100 µM (inactive); in the assay on CCRF-CEM, > 100 µM (inactive); in the assay with DMS-114 it was > 100 µM (inactive); with HCT-15, more than 100 µM; in the assay on HOP-62, > 100 µM (inactive); in the assay on HOP-92, > 100 µM (inactive). Further, the GI50 in the assay with LOX IMVI, in the assay with LXFL 529, with Malme-3M, in the assay with NCI-H522, with OVCAR-3 and in the assay on SF-539 was > 100 µM (inactive) throughout. The GI50 in the assay on SK-OV-3, in the assay on SNB-19, with SNB-75, in the assay with SW-620 and in the assay with U-251 was > 100 µM (inactive) each time.
Take `Cc1ccc(C(=O)/C=C2\Nc3c(c(=O)oc4ccccc34)N=C2NC23CC4CC(CC(C4)C2)C3)cc1`: the GI50 in the assay with CAKI-1 was > 100 µM (inactive); in the assay on CCRF-CEM, > 100 µM (inactive); with DMS-114, > 100 µM (inactive); with HCT-15 it was more than 100 µM; in the assay on HOP-62, > 100 µM (inactive); in the assay with HOP-92, 49.2 µM (inactive). Besides, the GI50 in the assay with LOX IMVI, in the assay with LXFL 529, in the assay on Malme-3M, in the assay on NCI-H522, with OVCAR-3 and in the assay with SF-539 was > 100 µM (inactive) in each case. Besides, the GI50 in the assay on SK-OV-3 was > 100 µM (inactive); with SNB-19, > 100 µM (inactive); with SNB-75, 28.6 µM (inactive); in the assay with SW-620 it was > 100 µM (inactive); in the assay with U-251, > 100 µM (inactive).
For `Cc1ccccc1NC(=O)/C(=N/NC(=O)CC#N)C1C(=O)N(c2ccccc2)N=C1N` (stereo not given), the GI50 in the assay on CAKI-1 was > 100 µM (inactive); in the assay on CCRF-CEM it was 31.3 µM (inactive); in the assay with DMS-114, > 100 µM (inactive); in the assay on HCT-15, more than 100 µM; in the assay with HOP-62, > 100 µM (inactive); in the assay with HOP-92, 36.5 µM (inactive). In addition, the GI50 is > 100 µM (inactive) in the assay with LOX IMVI; > 100 µM (inactive) in the assay on LXFL 529; > 100 µM (inactive) in the assay on Malme-3M; 57.1 µM (inactive) in the assay on NCI-H522; > 100 µM (inactive) in the assay on OVCAR-3; > 100 µM (inactive) with SF-539. Besides, the GI50 in the assay with SK-OV-3, in the assay on SNB-19, with SNB-75, in the assay on SW-620 and in the assay on U-251 was > 100 µM (inactive) each time.
Regarding `O=C1C=C(Nc2ccccc2C(=O)CC(=O)C(=O)Nc2cccc(C(F)(F)F)c2)c2ccccc2C1=O`, the GI50 with CAKI-1 is 64 µM (inactive); in the assay with CCRF-CEM, 4.37 µM (inactive); in the assay with DMS-114, 13 µM (inactive); in the assay with DU-145 it was 78 µM (inactive); in the assay on HCT-15, 19.5 µM; in the assay on HOP-62 it was 40 µM (inactive). Moreover, the GI50 in the assay on HOP-92 is 31.4 µM (inactive); in the assay on LOX IMVI, 6.04 µM (inactive); in the assay on LXFL 529, 18.3 µM (inactive); in the assay on MDA-MB-231, 20 µM (inactive); in the assay with Malme-3M it was 15.1 µM (inactive); in the assay with NCI-H522, 23.1 µM (inactive). The GI50 is 13.5 µM (inactive) in the assay on NCI/ADR-RES; 6.35 µM (inactive) in the assay with OVCAR-3; 22.5 µM (inactive) in the assay on SF-539; 61.4 µM (inactive) in the assay on SK-OV-3; 54.3 µM (inactive) in the assay with SNB-19; 50.4 µM (inactive) in the assay on SNB-75. Further, the GI50 was 27.6 µM (inactive) with SW-620 and 31.3 µM (inactive) in the assay with U-251.
Regarding `CN(C)CC1(Cc2ccccc2)CCC(Cc2ccccc2)C1=O` (stereo not given), the GI50 in the assay with CAKI-1 was 13.3 µM (inactive); in the assay with CCRF-CEM, 2.79 µM (inactive); in the assay on DMS-114, 15.8 µM (inactive); with DU-145, 14.8 µM (inactive); with HCT-15, 5.21 µM; in the assay with HOP-62, 18 µM (inactive). The GI50 with HOP-92 was 17.4 µM (inactive); with LOX IMVI it was 6.9 µM (inactive); in the assay with LXFL 529, 2.71 µM (inactive); in the assay with MDA-MB-231, 11.2 µM (inactive); in the assay on Malme-3M, 12.5 µM (inactive); in the assay on NCI-H522 it was 2.84 µM (inactive). Also, the GI50 in the assay with NCI/ADR-RES was 9.68 µM (inactive); in the assay with OVCAR-3, 6.95 µM (inactive); with SF-539, 18.1 µM (inactive); in the assay on SK-OV-3, 21.8 µM (inactive); with SNB-19, 16 µM (inactive); with SNB-75, 14.4 µM (inactive). Moreover, the GI50 is 3.67 µM (inactive) in the assay with SW-620 and 17.5 µM (inactive) with U-251.
As to `CCN(CC)CCCNc1nccc2c(C)c3[nH]c4ccncc4c(=O)c3cc12`, the GI50 in the assay with CAKI-1 is 1.91 µM (inactive); with CCRF-CEM, 0.746 µM (active); with DMS-114 it was 0.494 µM (active); in the assay with HCT-15, 8.71 µM; with HOP-62, 3.11 µM (inactive); in the assay with HOP-92, 1.75 µM (inactive). Besides, the GI50 in the assay on LOX IMVI is 0.975 µM (active); in the assay on LXFL 529, 1.48 µM (inactive); in the assay on Malme-3M it was 3.83 µM (inactive); in the assay with NCI-H522, 0.52 µM (active); in the assay on OVCAR-3, 1.8 µM (inactive); in the assay with SF-539, 2.45 µM (inactive). Moreover, the GI50 in the assay with SK-OV-3 was 3.77 µM (inactive); in the assay on SNB-19, 2.87 µM (inactive); in the assay with SNB-75 it was 2.24 µM (inactive); in the assay on SW-620 it was 1.84 µM (inactive); in the assay on U-251, 2.19 µM (inactive).

The values above are taken from ChEMBL document CHEMBL1201862, “PubChem BioAssay data set” (2004).
